Data as given in patent US10925286B2, “Synergistic chalcone containing composition of a nematicide” (TELLURIS BIOTECH INDIA PRIVATE LIMITED, priority 2017, dated 2021).

Columns and labels:
[1] = tested on: M. incognita eggs; test: Egg hatching experiment, 96-well plate, 10 eggs per well, 16 days; type: in vivo, Meloidogyne incognita
Description: (§1) Tomato plants were inoculated with M. incognita juveniles and maintained in a growth chamber. After at least two months, the M. incognita eggs were extracted from the roots for experiments. The procedure followed for extracting M. incognita eggs is explained below.
(§2) The root tissues were either chopped by hand using a surgical blade and a watch glass, or it was chopped up using a food processor. The chopped tissue was then placed in a bottle and washed with a 10% dilution of bleach. Under sterile conditions, the root solution was then poured through sieves (60 count sieve on top, 500 count sieve on the bottom). The crude egg collection was collected from the bottom of the 500 count sieve into 5 mL each of bleach and egg mixture in 15 mL Falcon tubes. 5 mL of 70% sucrose solution was then placed in each Falcon tube. A 1 mL layer of double distilled sterile water was then gently placed on top of the sucrose mixtures in each Falcon tube. The samples were then centrifuged for 5 minutes at 1200 rpm. The embryos that were suspended between the sucrose solution and the 1 mL water layer were collected in a total of 3 mL (top layer of 3 mL of the solution) from each Falcon tube into fresh 15 mL Falcon tubes. 10 mL of a 5% bleach solution was added and the eggs were vortexed for 10 minutes. The Falcon tubes were then centrifuged for 5 minutes at 2000 rpm. The supernatant was then removed, and the eggs were rinsed in 10 mL of sterile double distilled water and re-centrifuged for 5 minutes at 2000 rpm. This process was repeated two more times. After the last wash, 5 mL of supernatant was removed, while the remaining 5 mL of water was mixed with the eggs and placed into a 5 mL Petri dish. The eggs were then placed in an incubator at 25-27° C., and juvenile worms (J2 stage) hatched after about 10 days. The worms were kept in a 25-27° C. incubator for storage.
The bioassay is designed to test the ability of the mixture of peptides and chalcone to prevent egg hatching (% unhatched eggs). Each test was performed in a 96-well plate with 10 eggs per well. The eggs were incubated in each treatment for 16 days. Hatched vs unhatched eggs were determined by microscopic images.
(§3) As described earlier, equal number nematodes were incubated in various treatment solutions in a 96-well plate for 5 days and the potency of different combination of nematicides was tested by counting the number of nematodes dead or surviving on Day 5. Similarly, the effect of different combination of nematicide composition on hatching of nematode eggs was also counted.

[2] = tested on: nematodes; settings: cited from earlier work; for effective concentration for nematicidal activity: peptide alone; for nematicidal activity: peptide individually, 1 mg/ml
[3] = tested on: J2 M. incognita; test: Bioassay for killing J2 juvenile nematodes (% mortality), 96-well plate, 5 days; type: in vivo, Meloidogyne incognita; settings: for effectiveness in killing juvenile nematodes: peptide alone (0.8 mg/ml where stated), Day 5
Description: as §1
as §2, with “The eggs were then placed in an incubator at 25-27° C., and juvenile worms (J2 stage) hatched after about 10 days. The worms were kept in a 25-27° C. incubator for storage.” left out
as §3

Row | Molecule | hatched eggs by Day 16 ([1]; chalcone alone, 10^−4-10^−5 M) | effective concentration for nematicidal activity [2] | nematicidal activity [2] | death of juvenile nematodes on Day 5 ([3]; peptide alone, 0.8 mg/ml) | hatched eggs by Day 16 ([1]; peptide alone, 0.8 mg/ml) | effectiveness in killing juvenile nematodes [3]
1 | O=C(/C=C/c1ccccc1)c1ccc(Cl)cc1Cl [chalcone 17, (2E)-1-(2,4-Dichlorophenyl)-3-phenyl-2-propen-1-one] | ~50% |  |  |  |  | 
2 | CCOc1ccc(C(=O)/C=C/c2ccccc2)cc1 [chalcone 25, (2E)-1-(4-Ethoxyphenyl)-3-phenyl-2-propen-1-one] | ~50% |  |  |  |  | 
3 | Peptide 2: 15 amino acids DLLRPVVIAPQFSRQ (99-113 amino acid stretch of CED-4 protein, SEQ ID NO. 2) (Caenorhabditis elegans) |  | about 1 mg/ml | 100% | 60-80% | around 30% | 
4 | Peptide 3: 19 amino acids RQMLDRKLLLGNVPKQMTC (112-130 amino acid stretch of CED-4 protein, SEQ ID NO. 3) (Caenorhabditis elegans) |  | about 1 mg/ml | 100% |  | around 10% | less effective
5 | Peptide 12: 12 amino acids FPKFMQLHQKFY (529-540 amino acid stretch of CED-4 protein, SEQ ID NO. 4) (Caenorhabditis elegans) |  | about 1 mg/ml | 100% |  | around 20% | highly effective
